In patent publication US20050176655A1, “Novel macrolide derivatives havaing effect of potentiating antifungal activity” (priority 2002, published 2005):

Assays:
Assay in all cases: Paper disk method, enhancing action for activities of azole antifungal agents
Format in all cases: cell-based
[1] = system: fluconazole resistant Candida albicans ATCC 64550; conditions: 24 hours; for Inhibition activity (inhibition ring mm) C. albicans ATCC 64550 GYF / Transparency of the inhibition ring C. albicans ATCC 64550 GYF: fluconazole 30 μg/ml; for Inhibition activity (inhibition ring mm) C. albicans ATCC 64550 GYM / Transparency of the inhibition ring C. albicans ATCC 64550 GYM: miconazole 0.15 μg/ml
Method in brief: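 Paper disk assay on GY agar (pH 6.0) seeded with Waksman-broth-grown C. albicans ATCC 64550 (0.1% inoculum). Medium was supplemented with sub-growth-inhibitory miconazole 0.15 μg/ml or fluconazole 30 μg/ml. After 24 h, inhibition-zone diameter was measured in mm and transparency graded A–E (A most transparent, E opaque).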

[2] = system: Aspergillus niger ATCC 6275; conditions: 48 hours; for Inhibition activity (inhibition ring mm) A. niger ATCC 6275 GYF / Transparency of the inhibition ring A. niger ATCC 6275 GYF: fluconazole 10 μg/ml; for Inhibition activity (inhibition ring mm) A. niger ATCC 6275 GYM / Transparency of the inhibition ring A. niger ATCC 6275 GYM: miconazole 0.1 μg/ml
Method in brief: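 Paper-disk assay on A. niger ATCC 6275 spores (0.2%) seeded on GY agar pH 6.0. After 48 h, inhibition-zone diameter recorded in mm and transparency graded A (transparent) to E (opaque).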

[3] = system: Candida albicans ATCC 64548; conditions: 24 hours; for Inhibition activity (inhibition ring mm) C. albicans ATCC 64548 GYM / Transparency of the inhibition ring C. albicans ATCC 64548 GYM: miconazole 0.03 μg/ml; for Inhibition activity (inhibition ring mm) C. albicans ATCC 64548 GYF / Transparency of the inhibition ring C. albicans ATCC 64548 GYF: fluconazole 0.5 μg/ml
Method in brief: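 GY agar (pH 6.0) seeded with C. albicans ATCC 64548 precultured in Waksman broth at 27° C for 40 hours, supplemented with sub-growth-inhibitory miconazole 0.03 μg/ml or fluconazole 0.5 μg/ml. Paper disk method; inhibition-zone diameter (mm) read after 24 hours, transparency graded A–E.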

[4] = 50 μg/8 mm disk, GY medium (control, no azole)

SMILES	Inhibition activity (inhibition ring mm) C. albicans ATCC 64550 GYF ([1]; 10 μg/8 mm disk)	Transparency of the inhibition ring C. albicans ATCC 64550 GYF ([1]; 10 μg/8 mm disk)	Inhibition activity (inhibition ring mm) C. albicans ATCC 64550 GYF ([1]; 50 μg/8 mm disk)	Transparency of the inhibition ring C. albicans ATCC 64550 GYF ([1]; 50 μg/8 mm disk)	Inhibition activity (inhibition ring mm) C. albicans ATCC 64550 GYM ([1]; 50 μg/8 mm disk)	Transparency of the inhibition ring C. albicans ATCC 64550 GYM ([1]; 50 μg/8 mm disk)	Inhibition activity (inhibition ring mm) A. niger ATCC 6275 GYF ([2]; 10 μg/8 mm disk)	Transparency of the inhibition ring A. niger ATCC 6275 GYF ([2]; 10 μg/8 mm disk)	Inhibition activity (inhibition ring mm) A. niger ATCC 6275 GYM ([2]; 10 μg/8 mm disk)	Transparency of the inhibition ring A. niger ATCC 6275 GYM ([2]; 10 μg/8 mm disk)	Inhibition activity (inhibition ring mm) A. niger ATCC 6275 GYF ([2]; 50 μg/8 mm disk)	Transparency of the inhibition ring A. niger ATCC 6275 GYF ([2]; 50 μg/8 mm disk)	Inhibition activity (inhibition ring mm) A. niger ATCC 6275 GYM ([2]; 50 μg/8 mm disk)	Transparency of the inhibition ring A. niger ATCC 6275 GYM ([2]; 50 μg/8 mm disk)	Inhibition activity (inhibition ring mm) C. albicans ATCC 64548 GYM ([3]; 10 μg/8 mm disk)	Transparency of the inhibition ring C. albicans ATCC 64548 GYM ([3]; 10 μg/8 mm disk)	Inhibition activity (inhibition ring mm) C. albicans ATCC 64548 GYF ([3]; 50 μg/8 mm disk)	Transparency of the inhibition ring C. albicans ATCC 64548 GYF ([3]; 50 μg/8 mm disk)	Inhibition activity (inhibition ring mm) C. albicans ATCC 64548 GYM ([3]; 50 μg/8 mm disk)	Transparency of the inhibition ring C. albicans ATCC 64548 GYM ([3]; 50 μg/8 mm disk)	also measured
CCC(OC(=O)c1ccccc1)C(C)(O)C1OC(=O)C(C)C(OC2CC(C)(OC)C(OC(=O)c3ccccc3)C(C)O2)C(C)C(OC2OC(C)CC(N(C)C)C2O)C2(C)CC(C)=C(O2)C1C (centres unmarked) [Compound 778, 4″,13-Di-O-benzoyl-8,9-Anhydro-pseudo-erythromycin A 6,9-hemiketal]	10 mm	E (Growth of test organism was inhibited 35% or less.)	13 mm	B (Growth of test organism was inhibited 75% of more and 95% or less.)	14 mm	B (Growth of test organism was inhibited 75% of more and 95% or less.)	12 mm	E (Growth of test organism was inhibited 35% or less.)	14 mm	E (Growth of test organism was inhibited 35% or less.)	13 mm	D (Growth of test organism was inhibited 35% or more and 55% or less.)	16 mm	A (Growth of test organism was inhibited 95% or more.)	12 mm	B (Growth of test organism was inhibited 75% of more and 95% or less.)	9 mm	D (Growth of test organism was inhibited 35% or more and 55% or less.)	16 mm	A (Growth of test organism was inhibited 95% or more.)	Inhibition activity (inhibition ring mm) A. niger ATCC 6275 GY [2, 4]: 10 mm; Transparency of the inhibition ring A. niger ATCC 6275 GY [2, 4]: E (Growth of test organism was inhibited 35% or less.)
CCC(OC(=O)c1ccccc1)C(C)(O)C1OC(=O)C(C)C(OC2CC(C)(OC)C(OC(=O)c3ccccc3)C(C)O2)C(C)C(OC2OC(C)CC(N(C)C)C2OC(C)=O)C2(C)CC(C)=C(O2)C1C (centres unmarked) [Compound 773, 2′-O-acetyl-4″,13-Di-O-benzoyl-8,9-Anhydro-pseudoerythromycin A 6,9-hemiketal]	11 mm	E (Growth of test organism was inhibited 35% or less.)	15 mm	A (Growth of test organism was inhibited 95% or more.)	14 mm	A (Growth of test organism was inhibited 95% or more.)	10 mm	E (Growth of test organism was inhibited 35% or less.)	13 mm	E (Growth of test organism was inhibited 35% or less.)	15 mm	E (Growth of test organism was inhibited 35% or less.)	15 mm	B (Growth of test organism was inhibited 75% of more and 95% or less.)	13 mm	C (Growth of test organism was inhibited 55% or more and 75% or less.)	12 mm	E (Growth of test organism was inhibited 35% or less.)	16 mm	A (Growth of test organism was inhibited 95% or more.)	Inhibition activity (inhibition ring mm) C. albicans ATCC 64550 GYM ([1]; 10 μg/8 mm disk): 10 mm; Transparency of the inhibition ring C. albicans ATCC 64550 GYM ([1]; 10 μg/8 mm disk): C (Growth of test organism was inhibited 55% or more and 75% or less.)
